Tests used:
[1] = target: T1, Alpha-1D adrenergic receptor (Rattus norvegicus, UniProt P23944); assay: Binding affinity to rat alpha-1D adrenergic receptor expressed in LTK cells; assay type: cell-based
T1 sequence (P23944 whole entry): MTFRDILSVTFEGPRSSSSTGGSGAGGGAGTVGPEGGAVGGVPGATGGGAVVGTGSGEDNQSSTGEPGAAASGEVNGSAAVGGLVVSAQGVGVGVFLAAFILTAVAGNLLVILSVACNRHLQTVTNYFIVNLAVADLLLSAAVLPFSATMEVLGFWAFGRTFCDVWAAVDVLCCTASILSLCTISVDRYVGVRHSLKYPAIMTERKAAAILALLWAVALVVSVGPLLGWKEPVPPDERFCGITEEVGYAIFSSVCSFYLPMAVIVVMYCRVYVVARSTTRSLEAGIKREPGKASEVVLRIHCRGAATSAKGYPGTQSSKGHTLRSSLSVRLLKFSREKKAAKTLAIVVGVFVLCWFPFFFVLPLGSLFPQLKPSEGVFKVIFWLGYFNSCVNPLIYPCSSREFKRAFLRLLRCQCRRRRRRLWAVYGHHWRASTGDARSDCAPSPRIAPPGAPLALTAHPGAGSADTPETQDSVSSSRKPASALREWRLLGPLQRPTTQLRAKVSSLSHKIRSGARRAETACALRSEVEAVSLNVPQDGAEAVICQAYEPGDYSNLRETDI

[2] = target: T2, Alpha-1A adrenergic receptor (Rattus norvegicus, UniProt P43140); assay: Binding affinity to alpha-1A adrenergic receptor in rat submaxillary gland; assay type: tissue-based
T2 sequence (P43140 whole entry): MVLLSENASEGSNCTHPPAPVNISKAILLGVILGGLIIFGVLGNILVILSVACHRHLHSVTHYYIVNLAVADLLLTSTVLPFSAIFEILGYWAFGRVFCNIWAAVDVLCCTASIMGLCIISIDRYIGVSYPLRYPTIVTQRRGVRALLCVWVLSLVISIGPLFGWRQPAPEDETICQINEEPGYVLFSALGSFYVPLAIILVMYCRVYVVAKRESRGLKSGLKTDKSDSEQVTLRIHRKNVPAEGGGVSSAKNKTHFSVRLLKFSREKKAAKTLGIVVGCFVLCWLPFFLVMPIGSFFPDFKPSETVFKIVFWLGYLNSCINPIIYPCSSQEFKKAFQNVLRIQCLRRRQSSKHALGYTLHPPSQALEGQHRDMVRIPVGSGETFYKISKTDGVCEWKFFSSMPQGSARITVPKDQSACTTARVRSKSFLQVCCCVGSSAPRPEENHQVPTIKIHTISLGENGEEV

Cricetulus griseus = species on record: Cricetulus griseus; assay: Selectivity ratio (alpha-1B/alpha-1A) of the compound
[3] = Selectivity ratio (antolog[pA2rat vas deferens/pA2 rat spleen]) of the compound; assay type: functional
[4] = target: T3, Alpha-1B adrenergic receptor (Rattus norvegicus, UniProt P15823); assay: In vitro antagonistic activity against alpha-1B receptor in rat spleen.; assay type: functional, tissue-based; details: read-out: pA2 (converted)
T3 sequence (P15823 whole entry): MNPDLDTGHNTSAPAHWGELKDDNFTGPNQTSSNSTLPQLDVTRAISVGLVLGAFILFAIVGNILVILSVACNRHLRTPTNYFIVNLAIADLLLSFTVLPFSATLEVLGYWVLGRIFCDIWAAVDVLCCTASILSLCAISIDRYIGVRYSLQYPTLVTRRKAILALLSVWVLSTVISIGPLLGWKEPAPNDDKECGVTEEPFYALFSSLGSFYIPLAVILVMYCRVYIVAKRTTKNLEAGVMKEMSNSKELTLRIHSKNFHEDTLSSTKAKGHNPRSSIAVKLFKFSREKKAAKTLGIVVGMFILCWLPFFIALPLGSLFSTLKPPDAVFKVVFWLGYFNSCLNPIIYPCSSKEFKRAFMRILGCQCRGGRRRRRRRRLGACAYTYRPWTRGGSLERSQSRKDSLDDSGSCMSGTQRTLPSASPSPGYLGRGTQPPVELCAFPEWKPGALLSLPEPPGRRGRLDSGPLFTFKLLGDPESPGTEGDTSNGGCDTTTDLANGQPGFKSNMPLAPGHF

Canis familiaris = assay: In vivo antagonist dissociation constant in intaraurethral pressure model in dogs.; details: Canis lupus familiaris, read-out: pA2 (converted)
[5] = target: T2, Alpha-1A adrenergic receptor; assay: In vitro antagonistic activity towards alpha-1A adrenergic receptor in rat vas deferens; assay type: functional, tissue-based; details: read-out: pA2 (converted)
[6] = target: Alpha-1A adrenergic receptor (Canis familiaris); assay: In vitro antagonistic activity against alpha-1A receptor in dog prostate.; details: read-out: pA2 (converted)
Rattus norvegicus = species on record: Rattus norvegicus; assay: Antagonistic activity in spontaneously hypertensive rat model.; assay type: functional

SMILES	Ki [1] [nM]	Ki [2] [nM]	Ratio (Cricetulus griseus)	further results
COc1cccc2c1CC[C@H]1CN(CCn3c(=O)[nH]c4[nH]ccc4c3=O)C[C@@H]21	1.67	1.2	2.15	–
COc1cc2c(cc1OC)C(=O)N(CCN1C[C@@H]3CCc4c(OC)cccc4[C@@H]3C1)CN2	72	12.9	7.4	–
COc1cc2c(cc1OC)NC(=O)N(CCN1C[C@@H]3CCc4c(OC)cccc4[C@@H]3C1)C2	168	123	1.5	–
COc1cc2nc(N(C)CCCNC(=O)C3CCCO3)nc(N)c2cc1OC (configuration not stated) [ALFUZOSIN]	–	–	–	Kb [4]: 4.9 nM; Kb (Canis familiaris): 135 nM
COc1cccc2c1CC[C@H]1CN(CCn3c(=O)[nH]c4cccnc4c3=O)C[C@@H]21	2.5	3.58	2.29	–
COc1cc2[nH]c(=O)n(CCN3C[C@@H]4CCc5c(OC)cccc5[C@@H]4C3)c(=O)c2cc1OC	1.4	–	–	–
COc1cccc2c1CC[C@H]1CN(CCn3c(=O)[nH]c4c(C(C)C)c(OC)sc4c3=O)C[C@@H]21	1.5	0.41	5.6	–
COc1cc2nc(N3CCN(C(=O)C4CCCO4)CC3)nc(N)c2cc1OC (configuration not stated) [TERAZOSIN]	–	–	–	Kb (Canis familiaris): 95.5 nM
COc1cccc2c1CC[C@H]1CN(CCn3c(=O)[nH]c4c(C)c(OC)sc4c3=O)C[C@@H]21	1.45	1.09	6.5	–
CCOc1ccccc1OCCN[C@H](C)Cc1ccc(OC)c(S(N)(=O)=O)c1 [TAMSULOSIN]	–	–	–	Kb (Canis familiaris): 1.35 nM
COc1cc(N)c(C(=O)NCCN2C[C@@H]3CCc4c(OC)cccc4[C@@H]3C2)cc1OC	32.7	3.75	7.8	–
COc1cc2c(cc1OC)NCN(CCN1C[C@@H]3CCc4c(OC)cccc4[C@@H]3C1)C2	189	62.2	1.01	–
COc1cccc2c1CC[C@H]1CN(CCn3c(=O)[nH]c4ccncc4c3=O)C[C@@H]21	2.87	6.8	1.55	–
COc1ccc2[nH]c(=O)n(CCN3C[C@@H]4CCc5c(OC)cccc5[C@@H]4C3)c(=O)c2c1	1.13	1.02	3.68	–
COc1cccc2c1CC[C@H]1CN(CCn3c(=O)[nH]c4c(OC)cccc4c3=O)C[C@@H]21	1.15	0.85	2.67	–
COc1cc2c(=O)n(CCN3C[C@@H]4CCc5c(OC)cccc5[C@@H]4C3)c(=O)n(C)c2cc1OC	3.71	0.25	13.2	–
COc1cc2[nH]c(=O)n(CCN3C[C@@H]4CCc5c(OC)cccc5[C@@H]4C3)c(=O)c2cc1Cl	2.71	1.89	4.9	–
COc1cc2c(cc1OC)CN(CCN1C[C@@H]3CCc4c(OC)cccc4[C@@H]3C1)CC2	83.4	80.7	1.43	–
COc1cccc2c1CC[C@H]1CN(CCn3c(=O)[nH]c4c(C)cc(C)cc4c3=O)C[C@@H]21	2.86	2.73	5.96	–
COc1cccc2c1CC[C@H]1CN(CCn3c(=O)[nH]c4cc([N+](=O)[O-])ccc4c3=O)C[C@@H]21	1.2	0.91	3.65	–
COC(=O)c1cc2[nH]c(=O)n(CCN3C[C@@H]4CCc5c(OC)cccc5[C@@H]4C3)c(=O)c2s1	1.38	1.48	2.3	–
COc1cc2ncn(CCN3C[C@@H]4CCc5c(OC)cccc5[C@@H]4C3)c(=O)c2cc1OC	7.79	–	–	Kb [4]: 85.1 nM; pED50 (Rattus norvegicus): 5.32; Kb (Canis familiaris): 5.01 nM
COc1cccc2c1CC[C@H]1CN(CCn3c(=O)[nH]c4cccc(C)c4c3=O)C[C@@H]21	1.13	1.15	0.9	–
COc1cccc2c1CC[C@H]1CN(CCn3c(=O)[nH]c4ncccc4c3=O)C[C@@H]21	1.99	–	–	–
COc1cccc2c1CC[C@H]1CN(CCn3c(=O)[nH]c4cnccc4c3=O)C[C@@H]21	1.78	1.41	2.19	–
COc1cccc2c1CC[C@H]1CN(CCn3c(=O)[nH]c4nccnc4c3=O)C[C@@H]21	5.49	9.22	1.36	–
COc1cccc2c1CC[C@H]1CN(CCn3c(=O)[nH]c4sccc4c3=O)C[C@@H]21	1.01	1.03	2.04	–
COc1cc2c(cc1OC)C(=O)N(CCN1C[C@@H]3CCc4c(OC)cccc4[C@@H]3C1)CC2	58.4	7.82	7.83	–
COc1cccc2c1CC[C@H]1CN(CCn3c(=O)[nH]c4cc(-c5ccccc5)sc4c3=O)C[C@@H]21	4.4	7.73	1.5	–

The remaining molecules from weak to strong by Ki [1], led by results:

Ki [1] [nM]	Ki [2] [nM]	Ratio (Cricetulus griseus)	SMILES	further results
0.92	1.39	1.17	COc1cccc2c1CCC1CN(CCn3c(=O)[nH]c4ccsc4c3=O)CC21 (configuration not stated)	–
0.92	1.39	–	COc1cccc2c1CC[C@H]1CN(CCn3c(=O)[nH]c4ccsc4c3=O)C[C@@H]21	–
0.89	0.09	14.6	COc1cccc2c1CC[C@H]1CN(CCn3c(=O)[nH]c4c(C)c(C)ccc4c3=O)C[C@@H]21	–
0.77	0.09	17.3	COc1cccc2c1CC[C@H]1CN(CCn3c(=O)[nH]c4cc(C#N)ccc4c3=O)C[C@@H]21	Kb [4]: 18.6 nM; Kb [5]: 1.48 nM; Ratio [3]: 12.59; Kb [6]: 0.148 nM
0.77	0.27	6.07	COC(=O)c1ccc2c(=O)n(CCN3C[C@@H]4CCc5c(OC)cccc5[C@@H]4C3)c(=O)[nH]c2c1	–
0.73	1.38	2.94	COc1cccc2c1CC[C@H]1CN(CCn3c(=O)[nH]c4cc(C)c(C)cc4c3=O)C[C@@H]21	–
0.71	0.85	–	COc1cccc2c1CC[C@H]1CN(CCn3c(=O)[nH]c4c(C)csc4c3=O)C[C@@H]21	–
0.69	0.71	1.31	COc1cccc2c1CC[C@H]1CN(CCn3c(=O)[nH]c4cccc(Cl)c4c3=O)C[C@@H]21	–
0.68	0.04	16.5	COc1cccc2c1CC[C@H]1CN(CCn3c(=O)[nH]c4c(OC)c(OC)ccc4c3=O)C[C@@H]21	Ratio [3]: 5.62
0.66	0.33	1	COc1cccc2c1CC[C@H]1CN(CCn3c(=O)[nH]c4c(-c5ccccc5)csc4c3=O)C[C@@H]21	–
0.62	0.67	1.73	COc1cccc2c1CC[C@H]1CN(CCn3c(=O)[nH]c4ccccc4c3=O)C[C@@H]21	–
0.52	0.48	2.1	COc1cccc2c1CC[C@H]1CN(CCn3c(=O)[nH]c4cscc4c3=O)C[C@@H]21	–
0.41	0.43	1.95	COc1cccc2c1CC[C@H]1CN(CCn3c(=O)[nH]c4cc(NC(C)=O)ccc4c3=O)C[C@@H]21	–
0.24	0.04	18	COc1cc2[nH]c(=O)n(CCN3C[C@@H]4CCc5c(OC)cccc5[C@@H]4C3)c(=O)c2s1	–
0.21	0.09	7.3	COc1ccc2c(=O)n(CCN3C[C@@H]4CCc5c(OC)cccc5[C@@H]4C3)c(=O)[nH]c2c1	–

Source: ChEMBL document CHEMBL1134501, “Structure-activity studies for a novel series of bicyclic substituted hexahydrobenz[e]isoindole alpha1A adrenoceptor antagonists as potential agents for the symptomatic treatment of benign prostatic hyperplasia” (J Med Chem, 2001)
